Seven compounds from patent US6569863B1, “Bicyclic heteroamatic compounds useful as LH agonists” (Akzo Nobel NV, priority 1999, dated 2003) can be followed below.

Assay [1] relates to immature female mice. In words: In vivo ovulation induction assay for LH bioactivity in immature female mice. On the set-up: species or system mouse. The settings on record: 50 mg/kg p.o., FSH-primed immature female mice, 24 h after administration. An excerpt:
In female immature mice which are stimulated with follicle stimulating hormone (FSH), ovulation can be induced by luteininzing hormone (LH) or by human chorionic gonadotrophin (hCG) which binds to the same LH-receptor on the Graafian follicles. Binding to the LH-receptor initiates a biochemical cascade, which eventually results in follicular rupture and extrusion of a mature oocyte. To measure the in vivo activity of LH-agonistic compounds, inunature 20 days old mice (B6D2F1 stain, Broekman Institute, the Netherlands) are primed with unary FSH (Humegon; 12.5 IU/l, 0.1 ml s.c.) to initiate folliculogenesis. Forty-eight hours after FSH treatment test compound, reference compound or vehicle (10% cremophor solution) are administered to the animals. Test compounds (50 mg/kg in 0.1 ml) and vehicle (0.1 ml) are administered p.o., reference compounds (500 IU/kg hCG in 0.1 ml) are injected s.c. As a reference, hCG in-house standards are used which are calibrated against International Reference preparations of human hCG provided by the National Institute for Biological Standards and Controls (NMSC, London, UK). Twenty-four hours after administration of test compound, reference compound or vehicle, animals are killed by cervical dislocation. The oviducts are dissected and collected in 0.9% NaCl. Next, the oviducts are placed between two glass plates and examined for the presence or absence of ovulated ova under a microscope. The number of ovulated ova present in the oviducts is indicative for in vivo LH-bioactivity.

Assay [2] concerns the target T1, Leydig cell LH receptor (Mus musculus, UniProt P30730).
T1 construct: Leydig cells are isolated from the testes of mature, 9 to 13 weeks old, mice; from tissue; host or cells: primary Leydig cells from mouse testes (strain HSD/Cpb: S E, Harlan)
In words: In vitro test for LH bioactivity in mouse Leydig cells (testosterone production). In kind it is cell-based. The following applies: 4 h incubation, testosterone measured by RIA. An excerpt:
In male mice, the luteinising hormone (LH) induces testosterone production in testicular Leydig cells. […] The in vitro Leydig cell assay (van Damme et al, 1974; modified by Mannaerts et al, 1987) is used to determine the LH bioactivity of compounds that bind to the Leydig cell LH receptor which in turn causes testosterone production.
For this assay, Leydig cells are isolated from the testes of mature, 9 to 13 weeks old, mice (strain: HSD/Cpb: S E, Harlan, The Netherlands). Therefore, mice are killed and the testes are quickly removed and decapsulated. Each testis is transferred to a separate well of a tissue culture plate containing 0.75 ml culture medium per well. The contents of each well are passed through a 30 cm glass tube (inside diameter 2.5 mm, narrowed to 1.2 mm at 4 places in the middle). The suspension obtained is filtered through a 30 μm nylon mesh and the filtrate is pre-incubated in a 50 ml plastic tube for 30 min. at 37° C. in an incubator in a water-saturated atmosphere of 95% air/5% CO2. Following preincubation the tube is centrifuged at 1600 N/kg for 5 min and the supernatant is decanted. The resulting pellet is resuspended in culture medium (0.5 mg original testis/ml) and the suspension is kept homogeneous by stirring it very slowly on a magnetic stirrer.
This Leydig cell suspension (100 μl) is added to the wells of a micotiter plate containing 50 μl reference compound, test compound or vehicle (culture medium) per well. As a to reference, LH or hCG in-house standards are used which are calibrated against International Reference preparations of human LH or hCG provided by the National Institute for Biological Standards and Controls (NIBSC, London, UK). Test and reference compounds are dissolved, diluted and assayed in the same culture medium. The plates containing reference and test compounds are incubated for 4 h at 37° C. in an incubator in a water-saturated atmosphere of 95% air/5% CO2. Following incubation, plates are sealed and stored at −20° C. until testosterone measurement.
Prior to testosterone measurement, the contents of the microtiter plates are thawed at room temperature and the plates are centriged at 150 N/kg for 5 min. An aliquot of 30 μl supernatant of each well is diluted with culture medium (60×) to obtain a suitable dilution for testosterone measurement. Aliquots (12.5 μl) of each diluted test sample are then assayed using a direct testosterone RIA-kit.

The term EC50 denotes the concentration giving half of the maximal effect. A low value points to a more potent agent.

T1 sequence (P30730 27-700): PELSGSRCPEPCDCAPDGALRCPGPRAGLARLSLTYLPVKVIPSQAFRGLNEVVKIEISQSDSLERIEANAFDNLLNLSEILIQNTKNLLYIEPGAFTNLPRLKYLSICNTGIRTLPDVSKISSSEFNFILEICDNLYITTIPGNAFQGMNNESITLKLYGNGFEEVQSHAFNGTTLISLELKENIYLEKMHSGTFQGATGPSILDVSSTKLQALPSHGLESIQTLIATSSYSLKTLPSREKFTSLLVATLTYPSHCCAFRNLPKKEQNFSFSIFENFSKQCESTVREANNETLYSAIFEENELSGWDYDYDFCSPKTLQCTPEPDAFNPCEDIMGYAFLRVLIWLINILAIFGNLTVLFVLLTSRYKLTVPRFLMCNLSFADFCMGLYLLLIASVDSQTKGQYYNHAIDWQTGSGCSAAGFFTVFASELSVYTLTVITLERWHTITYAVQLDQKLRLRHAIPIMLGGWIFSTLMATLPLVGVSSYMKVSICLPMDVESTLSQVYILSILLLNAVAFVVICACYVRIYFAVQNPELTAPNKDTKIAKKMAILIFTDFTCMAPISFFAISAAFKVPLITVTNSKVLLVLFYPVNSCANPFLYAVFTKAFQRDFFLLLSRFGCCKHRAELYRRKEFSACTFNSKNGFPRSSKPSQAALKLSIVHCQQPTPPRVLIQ

As to `CSc1nc(-c2cccc(NC(=O)c3ccccc3)c2)c2c(N)c(C(=O)NC(C)(C)C)sc2n1` [Example 111, tert-Butyl 5-Amino-2-methylthio-4-(N-benzoyl-3-aminophenyl)-thieno[2,3-d]pyrimidine-6-carboxamide], the “Mouse in vivo ovulation induction (% ovulating animals)” value (“Mouse … (% ovulating animals)” for short) in assay [1] came out at 40%. The compound also registered an EC50 in assay [2] of 280 nM.

For the compound `CSc1nc(-c2cccc(NC(=O)CNC(C)(C)C)c2)c2c(N)c(C(=O)NC(C)(C)C)sc2n1` [Example 116, tert-Butyl 5-Amino-2-methylthio-4-(N-(2-(tert-butylamino)acetyl)-3-aminophenyl)-thieno[2,3-d]pyrimidine-6-carboxamide], in assay [1], the “Mouse … (% ovulating animals)” value was determined as 13%. Besides, in assay [2], the EC50 came to 320 nM.

Regarding `CSc1nc(-c2cccc(OCCCc3cccnc3)c2)c2c(N)c(C(=O)NC(C)(C)C)sc2n1` [Example 117, tert-Butyl 5-Amino-2-methylthio-4-(3-(3-(3-pyridyl)-propoxy)phenyl)-thieno[2,3-d]pyrimidine-6-carboxamide], in assay [1], the “Mouse … (% ovulating animals)” value was 40%. Further, in assay [2], the EC50 is 1800 nM.

In the case of `CCOc1nc(-c2cccc(OC)c2)c2c(N)c(C(=O)NC(C)(C)C)sc2n1` [Example 114, tert-Butyl 5-Amino-2-ethoxy-4-(3-methoxyphenyl)-thieno[2,3-d]pyrimidine-6-carboxamide], the “Mouse … (% ovulating animals)” value in assay [1] worked out at 30%. Also, the midpoint of the response in assay [2], the EC50, lay at 1900 nM.

With `COc1cccc(-c2nc(SC)nc3sc(C(=O)NC(C)(C)C)c(N)c23)c1` [Example 112, tert-Butyl 5-Amino-2-methylthio-4-(3-methoxyphenyl)-thieno[2,3-d]pyrimidine-6-carboxamide], in assay [1], the “Mouse … (% ovulating animals)” value stood at 40%. The EC50 in assay [2] was determined as 430 nM.

As to `COc1cccc(-c2nc(SC)nc3sc(C(=O)N(C)C(C)C)c(N)c23)c1` [Example 113, N-Methyl-N-isopropyl 5-Amino-2-methylthio-4-(3-methoxyphenyl)-thieno[2,3-d]pyrimidine-6-carboxamide], the “Mouse … (% ovulating animals)” value in assay [1] is listed as 50%. For the same compound, in assay [2], the concentration giving a half-maximal response (EC50) is 870 nM.

For the compound `COc1cccc(-c2nc(-c3cccs3)nc3sc(C(=O)N4CCOCC4)c(N)c23)c1` [Example 115, 5-Amino-2-(2-thienyl)-4-(3-methoxyphenyl)-6-(N-morpholinocarbonyl)thieno[2,3-d]pyrimidine], in assay [1], the “Mouse … (% ovulating animals)” value was 20%. The compound further gave an EC50 in assay [2] of 3100 nM.
